Experimental data reported in EP1708721B1, “MYOCARDIAL PERFUSION IMAGING USING ADENOSINE RECEPTOR AGONISTS” (Gilead Sciences, Inc., priority 2004, dated 2005).

System: healthy volunteers
Assay: Example 3: maximum tolerated dose and safety after a single IV bolus, supine and standing
Assay type: in vivo
Description: This Example is a study performed to evaluate (1) the maximum tolerated dose of CVT-3146 and (2) the pharmacokinetic profile of CVT-3146 in healthy volunteers, after a single IV bolus dose.
The study was performed using thirty-six healthy, non-smoking male subjects between the ages of 18 and 59 and within 15% of ideal body weight
The study was performed in phase 1, single center, double-blind, randomized, placebo-controlled, crossover, ascending dose study. Randomization was to CVT-3146 or placebo, in both supine and standing positions.
CVT-3146 was administered as an IV bolus (20 seconds) in ascending doses of […], 10, 20 and 30 µg/kg.
Subjects received either CVT-3146 or placebo on Day 1 supine, then crossover treatment on Day 2 supine. On Day 3, subjects received CVT-3146 or placebo standing, then crossover treatment on Day 4 standing.
Patient safety was monitored by ECG, laboratory assessments, and collection of vital signs and adverse events. Pharmacokinetics: • Plasma samples were drawn during supine phase (Days 1 and 2) at 0, 1, 2, 3, 4, 5, 7,10, 15, 20, 30, 45 minutes after dosing and at 1, 1.5., 2, 4, 6, 8,12 and 24 hours after dosing. Urine was collected for 24 hours for […] excretion. Pharmacodynamics: • The study evaluated the relationship of changes in heart rate to dose in both standing and supine positions and plasma concentration in the supine position.

[1] = severe in intensity, 20 µg/kg Standing, 4 subjects per group

CNC(=O)c1cnn(-c2nc(N)c3ncn([C@@H]4O[C@H](CO)[C@@H](O)[C@H]4O)c3n2)c1 [CVT-3146, (1-{9-[(4S,2R,3R,5R)-3,4-dihydroxy-5-(hydroxymethyl)oxolan-2-yl]-6-aminopurin-2-yl}pyrazol-4-yl)-N-methylcarboxamide]
serious adverse events (IV bolus 0.1 to 30 µg/kg): no serious adverse events | Number of Subjects with AE: Dizziness [1]: 1 | Number of Subjects with AE: Palpitation [1]: 0 | Number of Subjects with AE: Syncope [1]: 1 | Number of Subjects with AE: Dizziness (severe in intensity, 30 µg/kg Supine, 4 subjects per group): 0
